Laboratory results reported in US20180057505A1, “BICYCLIC HETEROARYL COMPOUNDS USEFUL AS INHIBITORS OF THE PAR-2 SIGNALING PATHWAY” (VERTEX PHARMACEUTICALS INCORPORATED, priority 2015, published 2018).

How the values were obtained:
Type in all cases: cell-based
PAR2 (HT-29 cells) [1] = molecular target: T1, PAR2 (HT-29 cells) (Homo sapiens, UniProt P55085); test: Ca FLIPR TETRA assay, ANTAGONIST mode, activator 3.1 U/mL trypsin; conditions: HT-29 cells; activator 3.1 U/mL trypsin; Method A: maximal concentration of antagonist 0.1, 1 or 2 μM
T1 construct: host or cells: HT-29
T1 sequence (P55085 26-397): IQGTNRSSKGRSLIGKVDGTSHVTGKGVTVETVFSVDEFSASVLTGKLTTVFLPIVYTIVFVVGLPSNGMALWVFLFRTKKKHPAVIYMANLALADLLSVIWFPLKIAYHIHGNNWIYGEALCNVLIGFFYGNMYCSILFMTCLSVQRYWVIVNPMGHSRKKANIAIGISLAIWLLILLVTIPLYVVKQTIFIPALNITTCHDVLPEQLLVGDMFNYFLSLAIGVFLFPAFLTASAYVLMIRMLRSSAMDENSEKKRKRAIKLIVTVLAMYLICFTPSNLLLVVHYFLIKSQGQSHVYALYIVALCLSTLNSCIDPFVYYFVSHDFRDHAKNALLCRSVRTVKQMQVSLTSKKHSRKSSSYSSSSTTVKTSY
How it was run: (§1)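 Fluorescent Ca2+ dye (calcium 5) loading of overnight-plated HT-29 cells preceded compound addition and a 30 min room-temperature incubation. Responses to the specified activator concentration were then read by FLIPR Tetra in the same plate.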

PAR2 (HT-29 cells) [2] = molecular target: T1, PAR2 (HT-29 cells); test: Ca FLIPR TETRA assay, ANTAGONIST mode, activator 8 μM SLIGKV; conditions: HT-29 cells; activator 8 μM SLIGKV; Method A: maximal concentration of antagonist 0.1, 1 or 2 μM
How it was run: as §1

[3] = test system: Thrombin-stimulated Ca2+ response in HT-29 cells; test: Ca FLIPR TETRA assay, ANTAGONIST mode, activator 1 U/mL Thrombin; conditions: HT-29 cells, activator 1 U/mL Thrombin
How it was run: as §1

[4] = test system: UTP-stimulated Ca2+ response in HT-29 cells; test: Ca FLIPR TETRA assay, ANTAGONIST mode, activator 0.6 μM UTP; conditions: HT-29 cells, activator 0.6 μM UTP
How it was run: as §1

SMILES | IC50 (PAR2 (HT-29 cells) [1]) [nM] | IC50 (PAR2 (HT-29 cells) [2]) [nM] | IC50 ([3]; Homo sapiens) [nM] | IC50 ([4]; Homo sapiens) [nM] | IC50 [3] [nM] | IC50 [4] [nM]
CC(C)(C)c1cc(-c2ccc(Cl)c(F)c2)nc2cc(C(=O)N3CCN(c4cccc(C(=O)O)n4)C(=O)C3(C)C)oc12 [Example I-459] | 1.3 | 1.8 | 350 | 660 | – | –
CC(C)(C)c1cc(-c2ccc(Cl)cc2)nc2cc(C(=O)N3CCN(c4cccc(C(=O)O)n4)C(=O)C3(C)C)oc12 [Example I-460] | 14 | 10.6 | 1730 | 1870 | – | –
CC(C)(C)c1cc(-c2ccc(Cl)c(F)c2)nc2cc(C(=O)N3CCN(c4nccc(C(=O)O)n4)CC3(C)C)oc12 [Example I-461] | 0.5 | 0.4 | 660 | 560 | – | –
Cc1nc(N2CCN(C(=O)c3cc4nc(-c5ccc(Cl)cc5)cc(C(C)(C)C)c4o3)C(C)(C)C2)ncc1C(=O)O [Example I-462] | 0.8 | 0.6 | 1600 | 1250 | – | –
CC(C)(C)c1cc(-c2ccc(Cl)cc2)nc2cc(C(=O)N3CCN(c4cncc(C(=O)O)n4)CC3(C)C)oc12 [Example I-463] | 0.9 | 0.7 | 1010 | 860 | – | –
CC1(C)CCC(c2cc(C(C)(C)C)c3oc(C(=O)N4CCN(c5cncc(C(=O)O)n5)CC4(C)C)cc3n2)CC1 [Example I-464] | 0.9 | 0.5 | 810 | 610 | – | –
Cc1nc(N2CCN(C(=O)c3cc4nc(C5CCC(C)(C)CC5)cc(C(C)(C)C)c4o3)C(C)(C)C2)ncc1C(=O)O [Example I-465] | 1.2 | 0.5 | > 1010 | 960 | – | –
Cc1nc(N2CCN(C(=O)c3cc4nc(-c5ccc(Cl)c(F)c5)cc(C(C)(C)C)c4o3)C(C)(C)C2)ncc1C(=O)O [Example I-466] | 0.4 | 0.2 | 1150 | 995 | – | –
CCS(=O)(=O)NCC(=O)N1CCN(C(=O)c2cc3nc(-c4ccc(Cl)cc4)cc(C(C)(C)C)c3o2)C(C)(C)C1 [Example I-467] | 7.7 | 4.3 | > 2000 | > 2000 | – | –
CCS(=O)(=O)NCC(=O)N1CCN(C(=O)c2cc3nc(-c4ccc(Cl)c(F)c4)cc(C(C)(C)C)c3o2)C(C)(C)C1 [Example I-468] | 4.7 | 2.5 | > 2000 | > 2000 | – | –
CC(C)(C)c1cc(-c2ccc(Cl)c(F)c2)nc2cc(C(=O)N3CCN(c4cncc(C(=O)O)n4)CC3(C)C)oc12 [Example I-469] | 0.6 | 0.3 | > 2000 | > 2000 | – | –
CC(C)(C)c1cc(-c2ccc(Cl)c(F)c2)nc2cc(C(=O)N3CCN(c4nccnc4C(=O)O)CC3(C)C)oc12 [Example I-470] | 6.2 | 5.7 | > 2000 | > 2000 | – | –
CC(C)(C)c1cc(-c2ccc(Cl)cc2)nc2cc(C(=O)N3CCN(c4ccc(C(=O)O)nn4)CC3(C)C)oc12 [Example I-471] | 1.4 | 1.1 | > 2000 | > 2000 | – | –
CC(C)(C)c1cc(-c2ccc(Cl)c(F)c2)nc2cc(C(=O)N3CCN(C(=O)[C@@H]4CCS(=O)(=O)N4)CC3(C)C)oc12 [Example I-472] | 20 | 33.9 | > 2000 | > 2000 | – | –
CC(C)(C)c1cc(-c2ccc(Cl)c(F)c2)nc2cc(C(=O)N3CCN(C(=O)[C@H]4CCS(=O)(=O)N4)CC3(C)C)oc12 [Example I-473] | 27.7 | 18 | > 2000 | > 2000 | – | –
CC(C)(C)c1cc(-c2ccc(Cl)cc2)nc2cc(C(=O)N3CCN(C(=O)[C@@H]4CCS(=O)(=O)N4)CC3(C)C)oc12 [Example I-474] | 53 | 39 | > 2000 | > 2000 | – | –
CC(C)(C)c1cc(-c2ccc(Cl)cc2)nc2cc(C(=O)N3CCN(C(=O)[C@H]4CCS(=O)(=O)N4)CC3(C)C)oc12 [Example I-475] | 34 | 26 | > 2000 | > 2000 | – | –
Cc1nc(N2CCN(C(=O)c3cc4nc(-c5ccc(Cl)c(F)c5)cc(C(C)(C)C)c4o3)C(C)(C)C2)oc1C(=O)O [Example I-476] | 1.6 | 0.7 | > 500 | > 500 | – | –
CC(C)(C)c1cc(-c2ccc(Cl)cc2)nc2cc(C(=O)N3CCN(c4cncc(C(=O)O)c4)CC3(C)C)oc12 [Example I-477] | 1.8 | 0.7 | > 500 | > 500 | – | –
Cc1nc(N2CCN(C(=O)c3cc4nc(-c5ccc(Cl)cc5)cc(C(C)(C)C)c4o3)C(C)(C)C2)oc1C(=O)O [Example I-478] | 4.1 | 1.9 | > 500 | > 500 | – | –
CC(C)(C)c1cc(-c2ccc(Cl)cc2)nc2cc(C(=O)N3CCN(c4cccc(C(=O)O)n4)CC3(C)C)oc12 [Example I-479] | 0.3 | 0.2 | 1500 | 1030 | – | –
CC(C)(C)c1cc(-c2ccc(Cl)cc2)nc2cc(C(=O)N3CCN(c4nc(C(=O)O)co4)CC3(C)C)oc12 [Example I-481] | 0.4 | 0.3 | > 1250 | > 1250 | – | –
COc1ccc(N2CCN(C(=O)c3cc4nc(-c5ccc(Cl)c(F)c5)cc(C(C)(C)C)c4o3)C(C)(C)C2)nc1C(=O)O [Example I-482] | 0.2 | 0.2 | > 2000 | 1200 | – | –
CC(C)(C)c1cc(-c2ccc(Cl)cc2)nc2cc(C(=O)N3CCN(c4ncccn4)C(=O)C3(C)C)oc12 [Example I-483] | 2.8 | 3.6 | > 2000 | > 2000 | – | –
CC(C)(CN1CCN(C(=O)c2cc3nc(-c4ccc(Cl)c(F)c4)cc(C(C)(C)C)c3o2)C(C)(C)C1=O)C(=O)O [Example I-484] | 1.1 | 0.5 | > 1100 | > 1100 | – | –
Cc1ccnc(N2CCN(C(=O)c3cc4nc(-c5ccc(Cl)c(F)c5)cc(C(C)(C)C)c4o3)C(C)(C)C2)c1C(=O)O [Example I-485] | 18 | 16 | > 2000 | > 2000 | – | –
CC1(C)CCC(c2cc(C(C)(C)C)c3oc(C(=O)N4CCNC(=O)CC4(C)C)cc3n2)CC1 [Example I-486] | 70 | 42 | – | – | > 2000 | > 2000
Cc1ccc(N2CCN(C(=O)c3cc4nc(-c5ccc(Cl)c(F)c5)cc(C(C)(C)C)c4o3)C(C)(C)C2)nc1C(=O)O [Example I-487] | 0.3 | 0.2 | > 2000 | > 2000 | – | –
Cc1ccc(N2CCN(C(=O)c3cc4nc(C5CCC(C)(C)CC5)cc(C(C)(C)C)c4o3)C(C)(C)C2=O)nc1C(=O)O [Example I-488] | 14 | 6.5 | > 2000 | > 2000 | – | –
CC1(C)CCC(c2cc(C(C)(C)C)c3oc(C(=O)N4CCC(=O)NCC4(C)C)cc3n2)CC1 [Example I-489] | 270 | 115 | > 2000 | > 2000 | – | –
